Experimental data published in patent publication US12084453B2, “Bicyclic amines as CDK12 inhibitors” (Incyte Corporation, priority 2021, dated 2024).

Target: T1, CDK12 complexed with Cyclin K (Homo sapiens, UniProt Q9NYV4)
T1 construct: GST (N); host or cells: baculovirus expression system
Assay: CDK enzymatic assay (HTRF, LANCE Ultra kinase assay)
Assay type: biochemical
Conditions: 60 minutes pre-incubation with compound; 1 mM ATP
Experimental: The following activity of the CDK enzymes in complex with their respective cyclins we assayed: CDK1 complexed with Cyclin B1; CDK2 complexed with Cyclin E1; CDK4 complexed with Cyclin D1; CDK6 complexed with Cyclin D1; CDK6 complexed with Cyclin D3; CDK9 complexed with Cyclin T1; CDK7 complexed with Cyclin H/MAT1; CDK2 complexed with Cyclin A2; CDK5 complexed with p35; CDK12 complexed with Cyclin K; CDK13 complexed with Cyclin K. These in vitro enzyme activity are assayed using homogeneous time-resolved energy transfer (HTRF), which measures phosphorylation of a peptide substrate. The LANCE® Ultra kinase assay (PerkinElmer) uses a ULight™-labeled EIF4E-binding protein 1 (THR37/46) peptide (DYSTTPGGTLFSTTPGTRI (SEQ ID NO: 1)) substrate and a Europium-labeled anti-phospho-4E-BP1 antibody (CDK2, CDK1, CDK4, CDK6, CDK9, CDK12, CDK13) or ULight™-labeled Myelin Basic Protein peptide (VTPRTPPP (SEQ ID NO: 2)) substrate and a Europium-labeled anti-phospho-MBP antibody (CDK7). Each CDK enzyme activity assays utilized human CDK co-expressed as N-terminal GST-tagged protein with its full length cyclin partner using a baculovirus expression system.
Enzyme was pre-incubated with compounds for 30 minutes (CDK1,2,4,6,9) or 60 minutes (CDK7, CDK12, CDK13) prior to addition of ATP and Ulight-peptide (1 mM and 50 nM final, respectively), in assay buffer containing 50 mM HEPES pH 7.5, 1 mM EGTA, 10 mM MgCl2, 2 mM DTT, 0.05 mg/mL BSA, and 0.01% Tween 20. The reaction was then incubated for 60-90 minutes at room temperature. The reactions were stopped by the addition of EDTA and Europium labeled antibody, for a final concentration of 15 mM and 1.0-1.5 nM, respectively. HTRF signals were read after 15-120 minutes. A ratio of fluorescence transferred to the labeled substrate (665 nm) relative to fluorescence of the Europium donor (620 nm) represents the extent of phosphorylation. Ratios for treated wells were normalized to DMSO only (100% activity) and no enzyme (0% activity) controls. Normalized data was analyzed using a three or four parameter dose response curve to determine IC50 for each compound and are shown in Table A. Control reference inhibitors were included on each plate.

T1 sequence (Q9NYV4 whole entry): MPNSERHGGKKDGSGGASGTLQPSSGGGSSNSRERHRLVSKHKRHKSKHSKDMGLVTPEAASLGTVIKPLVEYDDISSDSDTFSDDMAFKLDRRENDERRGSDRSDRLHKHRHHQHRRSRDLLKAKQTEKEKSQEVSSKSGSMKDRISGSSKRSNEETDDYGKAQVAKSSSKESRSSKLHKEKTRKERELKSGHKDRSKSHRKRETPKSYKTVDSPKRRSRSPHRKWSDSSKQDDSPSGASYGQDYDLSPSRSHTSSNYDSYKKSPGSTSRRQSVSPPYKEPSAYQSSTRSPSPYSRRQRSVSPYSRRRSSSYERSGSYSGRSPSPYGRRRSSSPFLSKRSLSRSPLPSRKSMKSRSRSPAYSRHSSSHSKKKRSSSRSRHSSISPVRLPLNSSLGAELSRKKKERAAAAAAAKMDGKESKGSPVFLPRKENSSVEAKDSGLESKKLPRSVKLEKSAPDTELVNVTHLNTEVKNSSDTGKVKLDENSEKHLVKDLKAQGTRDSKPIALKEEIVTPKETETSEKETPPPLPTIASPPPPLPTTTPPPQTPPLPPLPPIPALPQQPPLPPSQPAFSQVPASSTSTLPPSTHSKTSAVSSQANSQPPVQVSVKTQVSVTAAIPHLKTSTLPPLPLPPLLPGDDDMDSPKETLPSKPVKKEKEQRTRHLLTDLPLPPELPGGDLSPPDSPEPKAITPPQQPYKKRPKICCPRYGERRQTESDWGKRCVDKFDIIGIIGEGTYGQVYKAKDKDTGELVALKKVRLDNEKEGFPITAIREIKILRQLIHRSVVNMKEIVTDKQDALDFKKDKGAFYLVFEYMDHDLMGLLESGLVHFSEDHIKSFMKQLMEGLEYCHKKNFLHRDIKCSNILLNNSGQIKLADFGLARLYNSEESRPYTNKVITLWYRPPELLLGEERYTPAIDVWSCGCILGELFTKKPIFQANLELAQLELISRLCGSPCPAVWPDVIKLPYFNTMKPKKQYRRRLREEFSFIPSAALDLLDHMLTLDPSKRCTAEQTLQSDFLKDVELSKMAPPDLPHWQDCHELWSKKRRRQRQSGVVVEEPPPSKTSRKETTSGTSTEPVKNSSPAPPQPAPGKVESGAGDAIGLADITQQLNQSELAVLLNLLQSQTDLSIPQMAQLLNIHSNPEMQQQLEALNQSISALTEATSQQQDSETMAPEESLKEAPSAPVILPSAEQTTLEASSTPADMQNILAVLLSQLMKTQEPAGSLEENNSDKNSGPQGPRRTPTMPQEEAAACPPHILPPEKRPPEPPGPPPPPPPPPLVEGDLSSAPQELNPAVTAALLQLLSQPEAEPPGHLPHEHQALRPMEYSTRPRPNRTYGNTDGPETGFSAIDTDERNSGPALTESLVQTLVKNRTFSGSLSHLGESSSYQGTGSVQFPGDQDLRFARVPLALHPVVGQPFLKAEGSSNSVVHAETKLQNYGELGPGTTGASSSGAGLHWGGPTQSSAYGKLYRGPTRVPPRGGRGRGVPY
T1 sequence (O75909 whole entry partner): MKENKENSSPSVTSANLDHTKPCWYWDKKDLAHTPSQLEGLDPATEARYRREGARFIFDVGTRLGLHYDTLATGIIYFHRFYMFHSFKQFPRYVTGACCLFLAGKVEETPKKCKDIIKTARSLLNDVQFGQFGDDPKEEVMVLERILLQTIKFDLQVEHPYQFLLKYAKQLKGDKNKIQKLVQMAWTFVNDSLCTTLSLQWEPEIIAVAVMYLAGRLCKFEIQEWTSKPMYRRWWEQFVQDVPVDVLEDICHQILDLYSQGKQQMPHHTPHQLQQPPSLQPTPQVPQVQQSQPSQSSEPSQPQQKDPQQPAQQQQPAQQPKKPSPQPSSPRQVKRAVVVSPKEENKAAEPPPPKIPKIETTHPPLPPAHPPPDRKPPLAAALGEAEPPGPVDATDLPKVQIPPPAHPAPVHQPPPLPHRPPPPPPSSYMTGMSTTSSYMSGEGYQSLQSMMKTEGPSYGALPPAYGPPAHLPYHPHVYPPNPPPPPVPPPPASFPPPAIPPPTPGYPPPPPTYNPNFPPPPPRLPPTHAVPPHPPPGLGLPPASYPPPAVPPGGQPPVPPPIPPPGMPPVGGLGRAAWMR

Row | IC50 [nM] | Structure (SMILES)
1 | < 50 | C=CC(=O)Nc1ccc(C(=O)N2CC(Nc3nc4cnc(-c5cn[nH]c5)c(OC(C)C)n4n3)C2)cc1 [Example 1, N-(4-(3-((5-Isopropoxy-6-(1H-pyrazol-4-yl)-[1,2,4]triazolo[1,5-a]pyrazin-2-yl)amino)azetidine-1-carbonyl)phenyl)acrylamide]
2 | < 50 | C=CC(=O)Nc1ccc(C(=O)N2CCC(Nc3nc4c(OC)c(-c5cn[nH]c5)ncn4n3)CC2)cc1 [Example 2, N-(4-(4-((8-Methoxy-7-(1H-pyrazol-4-yl)-[1,2,4]triazolo[1,5-c]pyrimidin-2-yl)amino)piperidine-1-carbonyl)phenyl)acrylamide]
3 | < 50 | C=CC(=O)Nc1ccc(C(=O)N2CC(Nc3nc4c(OC)c(-c5cn[nH]c5)ncn4n3)C2)cc1 [Example 3, N-(4-(3-((8-Methoxy-7-(1H-pyrazol-4-yl)-[1,2,4]triazolo[1,5-c]pyrimidin-2-yl)amino)azetidine-1-carbonyl)phenyl)acrylamide]
4 | < 50 | C=CC(=O)Nc1ccc(C(=O)N2CCC[C@@H](Nc3nc4cnc(-c5cn[nH]c5)c(OC(C)C)n4n3)C2)c(F)c1 [Example 4, (R)-N-(3-Fluoro-4-(3-((5-isopropoxy-6-(1H-pyrazol-4-yl)-[1,2,4]triazolo[1,5-a]pyrazin-2-yl)amino)piperidine-1-carbonyl)phenyl)acrylamide]
5 | < 50 | C=CC(=O)Nc1ccc(C(=O)N2CCC[C@@H](Nc3nc4c(OC)c(-c5cn[nH]c5)ncn4n3)C2)cc1 [Example 5, (R)-N-(4-(3-((8-Methoxy-7-(1H-pyrazol-4-yl)-[1,2,4]triazolo[1,5-c]pyrimidin-2-yl)amino)piperidine-1-carbonyl)phenyl)acrylamide]
6 | < 50 | C=CC(=O)Nc1ccc(C(=O)N2CCC[C@@H](Nc3nc4ccc(-c5cn[nH]c5)c(N5CCCCC5)n4n3)C2)cc1 [Example 6, (R)-N-(4-(3-((5-(Piperidin-1-yl)-6-(1H-pyrazol-4-yl)-[1,2,4]triazolo[1,5-a]pyridin-2-yl)amino)piperidine-1-carbonyl)phenyl)acrylamide]
7 | < 50 | C=CC(=O)Nc1ccc(C(=O)N2CCC[C@@H](Nc3nc4ccc(-c5cn[nH]c5)c(N5CCCC5)n4n3)C2)cc1 [Example 7, (R)-N-(4-(3-((6-(1H-Pyrazol-4-yl)-5-(pyrrolidin-1-yl)-[1,2,4]triazolo[1,5-a]pyridin-2-yl)amino)piperidine-1-carbonyl)phenyl)acrylamide]
8 | < 50 | C=CC(=O)Nc1ccc(C(=O)N2CCC[C@@H](Nc3nc4ccc(-c5cn[nH]c5)c(N5CCOCC5)n4n3)C2)cc1 [Example 8, (R)-N-(4-(3-((5-Morpholino-6-(1H-pyrazol-4-yl)-[1,2,4]triazolo[1,5-a]pyridin-2-yl)amino)piperidine-1-carbonyl)phenyl)acrylamide]
9 | > 500 | C=CC(=O)Nc1ccc(C(=O)N2CCCC(Nc3nc4ccc(-c5c[nH]nc5C)c(N5CCOCC5)n4n3)C2)cc1 (stereo not drawn) [Example 9, N-(4-(3-((6-(3-Methyl-1H-pyrazol-4-yl)-5-morpholino-[1,2,4]triazolo[1,5-a]pyridin-2-yl)amino)piperidine-1-carbonyl)phenyl)acrylamide]
10 | < 50 | C=CC(=O)Nc1ccc(C(=O)N2CC[C@@H](Nc3nc4ccc(-c5cn[nH]c5)cn4n3)C2)cc1 [Example 11, (R)-N-(4-(3-((6-(1H-Pyrazol-4-yl)-[1,2,4]triazolo[1,5-a]pyridin-2-yl)amino)pyrrolidine-1-carbonyl)phenyl)acrylamide]
11 | < 50 | C=CC(=O)Nc1ccc(C(=O)N2CC[C@@H](Nc3nc4ccc(-c5cn[nH]c5)c(C)n4n3)C2)cc1 [Example 12, (R)-N-(4-(3-((5-Methyl-6-(1H-pyrazol-4-yl)-[1,2,4]triazolo[1,5-a]pyridin-2-yl)amino)pyrrolidine-1-carbonyl)phenyl)acrylamide]
12 | 50 to 500 | C=CC(=O)Nc1ccc(C(=O)N2CCC[C@@H](Nc3nc4ccc(-c5cn[nH]c5)c(N5CCC(F)(F)CC5)n4n3)C2)cc1 [Example 13, (R)-N-(4-(3-((5-(4,4-Difluoropiperidin-1-yl)-6-(1H-pyrazol-4-yl)-[1,2,4]triazolo[1,5-a]pyridin-2-yl)amino)piperidine-1-carbonyl)phenyl)acrylamide]
13 | < 50 | C=CC(=O)Nc1ccc(C(=O)N2CCC[C@@H](Nc3nc4ccc(-c5cn[nH]c5)c(O[C@H]5CCOC5)n4n3)C2)cc1 [Example 14, N-(4-((R)-3-((6-(1H-Pyrazol-4-yl)-5-(((S)-tetrahydrofuran-3-yl)oxy)-[1,2,4]triazolo[1,5-a]pyridin-2-yl)amino)piperidine-1-carbonyl)phenyl)acrylamide]
14 | < 50 | C=CC(=O)Nc1ccc(C(=O)N2CCC[C@@H](Nc3nc4ccc(-c5cn[nH]c5)c(OC5CCOCC5)n4n3)C2)cc1 [Example 15, (R)-N-(4-(3-((6-(1H-Pyrazol-4-yl)-5-((tetrahydro-2H-pyran-4-yl)oxy)-[1,2,4]triazolo[1,5-a]pyridin-2-yl)amino)piperidine-1-carbonyl)phenyl)acrylamide]
15 | < 50 | C=CC(=O)Nc1ccc(O[C@H]2CCC[C@@H](Nc3nc4ccc(-c5cn[nH]c5)c(N5CCCCC5)n4n3)C2)cc1 [Example 16, N-(4-(((1S,3R)-3-((5-(Piperidin-1-yl)-6-(1H-pyrazol-4-yl)-[1,2,4]triazolo[1,5-a]pyridin-2-yl)amino)cyclohexyl)oxy)phenyl)acrylamide]
16 | < 50 | C=CC(=O)Nc1ccc(C(=O)N2CC[C@@H](Nc3nc4ccc(-c5cn[nH]c5)c(C#N)n4n3)C2)cc1 [Example 17, (R)-N-(4-(3-((5-Cyano-6-(1H-pyrazol-4-yl)-[1,2,4]triazolo[1,5-a]pyridin-2-yl)amino)pyrrolidine-1-carbonyl)phenyl)acrylamide]
17 | < 50 | C=CC(=O)Nc1ccc(C(=O)N2CC[C@@H](Nc3nc4ccc(-c5cn[nH]c5)c(C(C)C)n4n3)C2)cc1 [Example 18, (R)-N-(4-(3-((5-Isopropyl-6-(1H-pyrazol-4-yl)-[1,2,4]triazolo[1,5-a]pyridin-2-yl)amino)pyrrolidine-1-carbonyl)phenyl)acrylamide]
18 | < 50 | C=CC(=O)Nc1ccc(C(=O)N2CC[C@@H](Nc3nc4ccc(-c5cn[nH]c5)c(C(C)C)n4n3)C2)cc1F [Example 19, (R)-N-(2-Fluoro-4-(3-((5-isopropyl-6-(1H-pyrazol-4-yl)-[1,2,4]triazolo[1,5-a]pyridin-2-yl)amino)pyrrolidine-1-carbonyl)phenyl)acrylamide]
19 | < 50 | C=CC(=O)Nc1ccc(C(=O)N2CC[C@@H](Nc3nc4ccc(-c5cnco5)cn4n3)C2)cc1 [Example 20, (R)-N-(4-(3-((6-(Oxazol-5-yl)-[1,2,4]triazolo[1,5-a]pyridin-2-yl)amino)pyrrolidine-1-carbonyl)phenyl)acrylamide]
20 | < 50 | C=CC(=O)Nc1ccc2c(c1)C(=O)N([C@H]1CCC[C@@H](Nc3nc4ccc(-c5cn[nH]c5)c(N5CCCCC5)n4n3)C1)C2 [Example 21, N-(3-Oxo-2-((1S,3R)-3-((5-(piperidin-1-yl)-6-(1H-pyrazol-4-yl)-[1,2,4]triazolo[1,5-a]pyridin-2-yl)amino)cyclohexyl)isoindolin-5-yl)acrylamide]
21 | < 50 | C=CC(=O)Nc1ccc2c(c1)C(=O)N([C@H]1CCC[C@@H](Nc3nc4ccc(-c5cn[nH]c5)c(C)n4n3)C1)C2 [Example 22, N-(2-((1S,3R)-3-((5-Methyl-6-(1H-pyrazol-4-yl)-[1,2,4]triazolo[1,5-a]pyridin-2-yl)amino)cyclohexyl)-3-oxoisoindolin-5-yl)acrylamide]
22 | < 50 | C=CC(=O)Nc1ccc2c(c1)C(=O)N([C@H]1CCC[C@@H](Nc3nc4ccc(-c5cn[nH]c5)c(C(C)C)n4n3)C1)C2 [Example 23, N-(2-((1S,3R)-3-((5-Isopropyl-6-(1H-pyrazol-4-yl)-[1,2,4]triazolo[1,5-a]pyridin-2-yl)amino)cyclohexyl)-3-oxoisoindolin-5-yl)acrylamide]
23 | 50 to 500 | C=CC(=O)Nc1ccc(C(=O)N2CC[C@@H](Nc3nc4cc(C)c(-c5cn[nH]c5)cn4n3)C2)cc1 [Example 24, (R)-N-(4-(3-((7-Methyl-6-(1H-pyrazol-4-yl)-[1,2,4]triazolo[1,5-a]pyridin-2-yl)amino)pyrrolidine-1-carbonyl)phenyl)acrylamide]

Row | Structure (SMILES) | IC50 [nM]
24 | C=CC(=O)Nc1ccc(C(=O)N2CCC[C@@H](Nc3nc4cnc(-c5cn[nH]c5)c(OC5CC(F)(F)C5)n4n3)C2)cc1 [Example 10, (R)-N-(4-(3-((5-(3,3-Difluorocyclobutoxy)-6-(1H-pyrazol-4-yl)-[1,2,4]triazolo[1,5-a]pyrazin-2-yl)amino)piperidine-1-carbonyl)phenyl)acrylamide] | < 50
